# Article PMC12596500, “Affinity-selected peptide ligands specifically bind i-motif DNA and modulate c-Myc gene expression” (Nucleic Acids Research, 2025)
# Peptide text beside a SMILES is read from it.
# What was measured:
# [1] = system: c-MycC52; test: 1H NMR of c-MycC52 with peptide; format: binding; conditions: 50 µM c-MycC52, one equivalent of peptide, 10 mM sodium cacodylate pH 6.6, 10% D2O, 283 K, 600 MHz
# Description: (§1) NMR: ^1H NMR spectra of c-MycC52 were recorded at 283 K using a Bruker Avance NEO 600 MHz spectrometer equipped with QCI-F cryoprobe operating Topspin 4.5.0. Spectra were recorded with excitation sculpting, at 27.75 ppm spectral width, 1 s acquisition time, and 1 s recycle delay. Spectra of the imino proton region were acquired with a 1D SOFAST excitation scheme with a 1293 μs Pc9_4_120 excitation pulse and 720 μs Reburp refocusing pulse, centred at 13 ppm, a 29.75 ppm spectral width, 115 ms acquisition time, and 100 ms recycle delay. Samples were annealed at a final concentration of 50 µM in 10 mM sodium cacodylate (pH 6.6). 10% D2O and 0.01% sodium trimethylsilylpropanesulfonate (DSS) were added immediately before recording NMR spectra experiments. Spectra were processed with exponential line broadening and referenced to the Sodium trimethylsilylpropanesulfonate (DSS) chemical shift. The chemical shift of the cacodylate buffer resonance was used to monitor potential pH changes between samples.
# (§2) Given the selectivity of the Pep-PTN and Pep-VSE peptides for the c-Myc iM structure, both in the binding experiments and also the in vitro gene assays, we considered potential binding modes. We recorded NMR spectra of the c-MycC52 oligonucleotide in the presence and absence of Pep-VSE to give insights into potential binding sites (Supplementary Figs S17–S20). […]
# [2] = Solubility and aggregation state seen by NMR; format: physicochemical; conditions: one equivalent of peptide to 50 µM c-MycC52, 10 mM sodium cacodylate pH 6.6, 10% D2O, 283 K, read-out 1H NMR
# Description: as §1, §2
smiles,measurement,setting,value
CC(=O)N[C@H](C(=O)N[C@@H](CO)C(=O)N[C@@H](CCC(=O)O)C(=O)N[C@@H](C)C(=O)N[C@@H](Cc1c[nH]c2ccccc12)C(=O)N[C@@H](CCCCN)C(=O)N[C@@H](CCC(=O)O)C(=O)N[C@H](C(=O)N[C@@H](CCCCN)C(=O)NCC(=O)N[C@@H](Cc1ccccc1)C(=O)N[C@@H](Cc1ccccc1)C(N)=O)C(C)C)C(C)C [Pep-VSE] (Ac-VSEAWKEVKGFF-NH2),effect on imino resonances of c-MycC52 (NMR),[1],no perturbations to imino resonances
same,solubility and aggregation state of the peptide (NMR),[2],soluble and not aggregated
